Measurements from paper PMC9023544, “Ketone-selenoesters as potential anticancer and multidrug resistance modulation agents in 2D and 3D ovarian and breast cancer in vitro models” (Scientific Reports, 2022).

Tested on: ABC superfamily genes in MCF-7/PAX
Test: Expression of genes encoding ABC transporters, qPCR
Type: cell-based, human
Protocol: Based on the fact that compounds K3, K4, K7 sensitized drug-resistant cell lines (HOC/ADR, MCF-7/PAX) and modulated ATPase activity of one from the ABC proteins (P-gp), we verified the potential of these compounds to affect ABC superfamily gene expression. The ovarian and breast cancer cell lines (parental cells and resistant sub-line) were analysed for the expression profile of genes encoding the ABC proteins in the previous works[18]–[20]. […] After 48 h, the effect of compounds alone or in the combination with cytostatics was observed (Supplementary Tables 1, Table 2).
To determine the impact of selected compounds on the expression of genes encoding ABC transporter, HOC/ADR and MCF-7/PAX cells were seeded for 24 h into 5 cm Petri dishes with DMEM medium at the cell density 1 × 10^5 cells/mL. Afterwards, the cells were washed 1× with PBS and new fresh DMEM supplemented with K3, K4, and K7 (in concentration corresponding to their IC10 value) alone or combined with cytostatics (Adriamycin or paclitaxel in concentration corresponding to their IC25 value) was added. In the experiment, positive and negative control was also included (positive—untreated cells, negative—cells treated only with cytostatics). After 48 h exposure, the cells were washed once with PBS and released from the surface by using the above-mentioned trypsin–EDTA procedure. The enzyme reaction was stopped by medium addition and the cells were centrifuged (3200×g; 10 min, 4 °C). The supernatants were removed and before the next centrifugation, the pellets were resuspended in 1.5 mL of cooled PBS (5400×g; 10 min, 4 °C). After the second washing step, the cells were centrifuged another time (10,000×g; 3 min, 4 °C). Subsequently, 1 mL of Trizol (Invitrogen) was added to the pellets and the compounds were stored − 80 °C.
The RNA concentration of selenoester treated samples was determined using QuantiT RiboGreen RNA Assay Kit and Infinite M200 plate reader (Tecan, Männedor, Switzerland). The cDNA was synthesized from 0.5 µg of total RNA by RevertAid First Strand Synthesis cDNA Kit (MBI Fermentas, Vilnius, Lithuania). To determine the quality of cDNA, the ubiquitin C gene fragment was amplified. The experiment was performed in 384-well block by using ViiA7 Real-Time PCR System (Life Technologies, Camarillo, California, United States). A master mix contained 0.25 µL of 20× TaqMan Gene Expression Assay, 1 µL of 5× HotFIREPol Probe qPCR Mix Plus, 1.75 µL of RNase free water and 2 µL of 8× diluted cDNA. The final reaction volume was 5 µL. The PCR parameters were as follows: initial hold (50 °C for 2 min), denaturation (95 °C for 10 min), followed by 45 cycles (denaturation at 95 °C for 15 s, annealing at 60 °C for 1 min). After each cycle, the fluorescent signal was determined. For each compound, duplicates were analysed and those with a standard deviation higher than 0.5 Ct were re-analysed. A quantitate real-time PCR was followed by MIQE guidelines. To compare the relative transcript levels of genes, the software REST 2009 (Qiagen, Hilden, Germany) was used.
Table 2. Effect of selenoesters either on the expression of the ABC gene superfamily in paclitaxel-resistant breast cancer cell line (MCF-7/PAX).
Gene expression of ABC transporters were estimated using comercial predesigned Taqman Gene Expression Assays (Life technologies). TaqMan Gene Expression Assays are based on 5´ nuclease chemistry, and each assay contains the primer and probe set for target of interest. Taqman assays IDs and GenBank Accession numbers of reference sequencies identifying their location and amplicon lengths are included in the Supplementary Table I. * Relative transcript levels (P-value ) in treated and non-treated cancer cell lines were compared using REST 2009 software.

CC(=O)C[Se]C(=O)c1ccc(Br)cc1 [K3]
number of ABC genes with altered expression: 30
ABCA2 Expression Difference (IC10 alone, 48 h): 0.188
ABCA2 Treated vs. Untr. (IC10 alone, 48 h): DOWN
ABCA3 Expression Difference (IC10 alone, 48 h): 0.481
ABCA3 Treated vs. Untr. (IC10 alone, 48 h): DOWN
ABCA4 Expression Difference (IC10 alone, 48 h): 27.38
ABCA5 Expression Difference (IC10 alone, 48 h): 0.559
ABCA5 Treated vs. Untr. (IC10 alone, 48 h): DOWN
ABCA7 Expression Difference (IC10 alone, 48 h): 0.5100
ABCA7 Treated vs. Untr. (IC10 alone, 48 h): DOWN
ABCA12 Expression Difference (IC10 alone, 48 h): 1.149
ABCB1 Expression Difference (IC10 alone, 48 h): 0.401
ABCB1 Treated vs. Untr. (IC10 alone, 48 h): DOWN
ABCB2 Expression Difference (IC10 alone, 48 h): 0.354
ABCB2 Treated vs. Untr. (IC10 alone, 48 h): DOWN
ABCB3 Expression Difference (IC10 alone, 48 h): 0.235
ABCB3 Treated vs. Untr. (IC10 alone, 48 h): DOWN
ABCB6 Expression Difference (IC10 alone, 48 h): 0.340
ABCB6 Treated vs. Untr. (IC10 alone, 48 h): DOWN
ABCB7 Expression Difference (IC10 alone, 48 h): 0.143
ABCB7 Treated vs. Untr. (IC10 alone, 48 h): DOWN
ABCB8 Expression Difference (IC10 alone, 48 h): 0.488
ABCB8 Treated vs. Untr. (IC10 alone, 48 h): DOWN
ABCB9 Expression Difference (IC10 alone, 48 h): 0.422
ABCB9 Treated vs. Untr. (IC10 alone, 48 h): DOWN
ABCB10 Expression Difference (IC10 alone, 48 h): 0.922
ABCB10 Treated vs. Untr. (IC10 alone, 48 h): DOWN
ABCC1 Expression Difference (IC10 alone, 48 h): 0.272
ABCC1 Treated vs. Untr. (IC10 alone, 48 h): DOWN
ABCC2 Expression Difference (IC10 alone, 48 h): 0.076
ABCC2 Treated vs. Untr. (IC10 alone, 48 h): DOWN
ABCC3 Expression Difference (IC10 alone, 48 h): 15.79
ABCC4 Expression Difference (IC10 alone, 48 h): 0.221
ABCC4 Treated vs. Untr. (IC10 alone, 48 h): DOWN
ABCC5 Expression Difference (IC10 alone, 48 h): 1.010
ABCC6 Expression Difference (IC10 alone, 48 h): 0.958
ABCC6 Treated vs. Untr. (IC10 alone, 48 h): DOWN
ABCC8 Expression Difference (IC10 alone, 48 h): 0.648
ABCC8 Treated vs. Untr. (IC10 alone, 48 h): DOWN
ABCC10 Expression Difference (IC10 alone, 48 h): 0.171
ABCC10 Treated vs. Untr. (IC10 alone, 48 h): DOWN
ABCD1 Expression Difference (IC10 alone, 48 h): 0.123
ABCD1 Treated vs. Untr. (IC10 alone, 48 h): DOWN
ABCD3 Expression Difference (IC10 alone, 48 h): 0.267
ABCD3 Treated vs. Untr. (IC10 alone, 48 h): DOWN
ABCD4 Expression Difference (IC10 alone, 48 h): 0.971
ABCE1 Expression Difference (IC10 alone, 48 h): 0.552
ABCE1 Treated vs. Untr. (IC10 alone, 48 h): DOWN
ABCF1 Expression Difference (IC10 alone, 48 h): 2.388
ABCF2 Expression Difference (IC10 alone, 48 h): 0.625
ABCF2 Treated vs. Untr. (IC10 alone, 48 h): DOWN
ABCF3 Expression Difference (IC10 alone, 48 h): 0.487
ABCF3 Treated vs. Untr. (IC10 alone, 48 h): DOWN
ABCG1 Expression Difference (IC10 alone, 48 h): 0.132
ABCG1 Treated vs. Untr. (IC10 alone, 48 h): DOWN
ABCG2 Expression Difference (IC10 alone, 48 h): 0.250
ABCG2 Treated vs. Untr. (IC10 alone, 48 h): DOWN
ABCG4 Expression Difference (IC10 alone, 48 h): 0.204
ABCG4 Treated vs. Untr. (IC10 alone, 48 h): DOWN
decrease of expression of ABCB1 (P-gp) encoding gene (IC10 alone, 48 h): 60%
downregulation of expression of ABCC1 (MRP1) (IC10 alone, 48 h): 73%
downregulation of expression of ABCG2 (IC10 alone, 48 h): 75%
